Measurements from article PMC6547740, “Potent and specific MTH1 inhibitors targeting gastric cancer” (Cell Death & Disease, 2019).

Assays:
MTH2 = molecular target: T1, MTH2 (Homo sapiens, UniProt Q9NV35); test: Cellular thermal shift assay (CETSA), MTH2; type: binding; settings: MGC-803 cells, 50 µM compound, heated 10 min from 43 to 61 °C
T1 construct: endogenous in cells; host or cells: MGC-803 (human gastric cancer cell line)
Protocol: (§1) Cellular thermal shift assay (CETSA), also known as the target engagement assay was one-way to detect the intracellular interaction ability of compounds with its specific target. Firstly, cells were seeded into T75 culture flasks and cultured overnight. Then, the cells were treated with cell media containing 1‰ DMSO as blank control and candidate compounds for 3–5 h. Next, the cells were collected by centrifugation and resuspended by PBS, then the cells were aliquoted into 7 PCR tubes and heated using PCR instrument for 10 min from 43 to 61 °C. After that, cells were lysed using liquid nitrogen and three repeated cycles of freeze-thawing. Then, samples were centrifuged at 12,000 × g for 20 min at 4 °C. Supernatants were denatured at 100 °C for 10 min and kept at −20 °C until Western Blot analysis.

MUTYH = molecular target: T2, MUTYH (Homo sapiens, UniProt Q9UIF7); test: Cellular thermal shift assay (CETSA), MUTYH; type: binding; settings: MGC-803 cells, 50 µM compound, heated 10 min from 43 to 61 °C
T2 construct: endogenous in cells; host or cells: MGC-803 (human gastric cancer cell line)
Protocol: as §1

Het-1A cells = test: MTT cell viability, Het-1A; type: cell-based; settings: Homo sapiens, normal esophageal epithelial cell line, 72 h
Protocol: (§2) The cell viability was determined by 3-(4,5-dimethylthiazol-2-yl)-2,5-diphenyltetrazolium bromide (MTT) assay, according to the manufacturer’s instructions. 1 day before treatment, cells were seeded into 96-well plates at a concentration of 2–5 × 10^3 cells per well, followed by treatment with fresh medium containing serial dilutions of candidate compounds for 48 or 72 h, 20 μL of MTT solution (5 mg/mL in PBS) was then added to each well. After treatment, the plates were incubated at 37 °C for another 4 h. Subsequently, the MTT solution was removed and 150 μL of DMSO was added to each well for 10 min, and then the plates were shaken to dissolve the dark blue crystal (formazan), the absorbance was detected at 570 nm using a BioTek microplate reader. The data were analyzed using SPSS 20 software.

GES-1 cells = test: MTT cell viability, GES-1; type: cell-based; settings: Homo sapiens, GES1, normal gastric epithelial cell line, 72 h
Protocol: as §2

ZIP177 cells = test: MTT cell viability, ZIP177; type: cell-based; settings: Homo sapiens, liver cancer cell line, 72 h
Protocol: as §2

HepG2 cells = test: MTT cell viability, HepG2; type: cell-based; settings: Homo sapiens, liver cancer cell line, 72 h
Protocol: as §2

TE-1 cells = test: MTT cell viability, TE-1; type: cell-based; settings: Homo sapiens, 72 h
Protocol: as §2

MKN45 cells = test: MTT cell viability, MKN45; type: cell-based; settings: Homo sapiens, MKN-45, gastric cancer cell line, 72 h
Protocol: as §2

MGC-803 cells [1] = test: Colony formation assay, MGC-803; type: cell-based, human; settings: MGC-803, 7 days treatment, compared with DMSO or MI-929
Protocol: The day before treatment, cells were seeded into six-well plates at a concentration of 1 × 10^3 cells per well, and then the media were replaced with fresh media containing serial concentrations of candidate compounds. After 7 days of treatment, the cells were fixed with 75% ethanol, stained with 0.1% crystal violet solution and captured by the microscopy (Leica). After that, the crystal violet crystals were dissolved by adding methanol. The absorbance at 595 nm was measured by a BioTek micro plate reader. In the end, the data were analyzed using the GraphPad Prism 5 software.

MGC-803 cells [2] = test: 8-oxo-dG assay (Cy3-conjugated avidin), MGC-803; type: cell-based, human; settings: MGC-803, 5 µM, 48 h, compared with DMSO
Protocol: Intracellular 8-oxo-dG levels were measured by staining with Cy3-conjugated avidin[65]. Cells were seeded on coverslips in 24-well plates (1–1.5 × 10^4 cells/well) overnight, and then transfected with candidate compounds. After 48 h, the cells were fixed with ice-cold methanol in Tris-buffered saline (TBS) for 15 min and blocked, using TBS with 0.1% Triton X-100 and 15% fetal bovine serum for 1 h. Then, the cells were stained with Cy3-conjugated avidin (0.5 µg/mL) for 1 h at room temperature. DNA was counterstained with 4,6-diamidino-2-phenylindole(DAPI). Images were acquired in a Nikon Eclipse TE 2000-S fluorescence microscope.

HGC-27 cells [3] = test: Alkaline comet assay, HGC-27; type: cell-based, human; settings: HGC-27, 10 µM, 48 h, compared with DMSO
Protocol: MGC-803 and HGC-27 cells were seeded into 6-well plates(1.5 × 10^5 cells/well) and cultured overnight. For siRNA experiments, the control siRNA and MTH1 siRNA were transfected into cells. For compounds experiments, cells were treated with candidate compounds MI-743 for 48 h before collection. For the H2O2 control, cells were treated with 100 µM H2O2 for 10 min. Subsequently, cells were harvested, washed and resuspended with PBS. After counting, cells were mixed with 1.2% low melting-temperature agarose at 37 °C. The mixtures were layered onto pre-warmed glass slides, which were pre-coated with 1% agarose. After adding coverslips, slides were kept in 4 °C immediately for 10-15 min, followed by immersing in pre-chilled lysis buffer(2.5 M NaCl, 0.1 M EDTA, 10 mM Tris-HCL pH 7.7, 1% Triton X-100, 1% DMSO)for 5-8 h. Then, slides were washed three times with enzyme reaction buffer (40 mM HEPES pH 8.0, 0.1 M KCl, 0.5 mM EDTA and 0.2 mg/mL BSA) and incubated for another 45 min in pre-chilled alkaline electrophoresis buffer (50 mM NaOH, 1 mM EDTA, 1% DMSO, pH12.8). After electrophoresis for 30 min at 25 V, slides were neutralized with 0.4 M Tris-HCl pH 7.0 for 1 h and stained with 1‰ EB for 5 min. At last, images were acquired using fluorescence microscope and analysised by CometScore software.

HGC-27 cells [4] = test: Western blot of DNA damage response markers, HGC-27; type: cell-based, human; settings: HGC-27, 1-12 µM 48 h or 12 µM 12-48 h, dose and time-dependently, vs DMSO
Protocol: MGC-803, HGC-27 and GES-1 cells were seeded into 100mm^2 plastic dishes(1 × 10^5 cells/well) and incubated overnight prior to the addition of compound MI-743 at 1, 2, 4, 8 and 12 µM for 48 h or compound MI-743 at 12 µM for 12, 24, 36 and 48 h, respectively. After treatment, the cells were harvested and lysed with RIPA cell lysis buffer, containing protease inhibitor cocktail. Then, the cells were centrifuged at 12,000 × g for 20 min at 4 °C. The supernatant were collected and the concentration was determined by a Bicinchoninic Acid (BCA) Protein Assay kit, denatured at 100 °C for 10 min, separated by SDS−PAGE and transferred to 0.22 μm nitrocellulose membranes. After blocking by PBS containing 5% skim milk for 2 h at room temperature, the membranes were probed with the appropriate primary antibodies (1:500~1:1000) at 4 °C overnight, followed by the treatment of horseradish-peroxidase-conjugated secondary antibody (1:10000) at room temperature for 2 h. Subsequently, the membranes were washed with PBST, examined by enhanced chemiluminescence and the data was determined using Image J software.

T2 sequence (Q9UIF7 whole entry): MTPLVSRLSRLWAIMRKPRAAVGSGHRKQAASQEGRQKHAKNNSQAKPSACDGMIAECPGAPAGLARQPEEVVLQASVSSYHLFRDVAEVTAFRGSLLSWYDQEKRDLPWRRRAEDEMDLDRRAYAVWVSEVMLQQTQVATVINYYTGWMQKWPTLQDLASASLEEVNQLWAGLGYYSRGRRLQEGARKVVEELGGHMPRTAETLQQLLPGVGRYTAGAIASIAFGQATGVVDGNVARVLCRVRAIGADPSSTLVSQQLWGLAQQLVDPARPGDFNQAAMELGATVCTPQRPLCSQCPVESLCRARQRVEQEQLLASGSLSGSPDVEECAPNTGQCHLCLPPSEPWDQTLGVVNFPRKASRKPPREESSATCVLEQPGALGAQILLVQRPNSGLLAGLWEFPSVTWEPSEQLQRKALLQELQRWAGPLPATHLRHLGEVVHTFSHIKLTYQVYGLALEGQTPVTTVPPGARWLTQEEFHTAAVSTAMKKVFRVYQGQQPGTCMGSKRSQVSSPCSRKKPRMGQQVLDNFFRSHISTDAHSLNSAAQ
T1 sequence (Q9NV35 whole entry): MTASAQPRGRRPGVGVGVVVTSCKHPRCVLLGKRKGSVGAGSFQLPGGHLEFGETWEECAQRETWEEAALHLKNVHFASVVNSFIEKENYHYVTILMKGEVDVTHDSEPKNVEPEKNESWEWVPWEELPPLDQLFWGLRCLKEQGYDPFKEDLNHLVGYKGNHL

## C#CCSc1nc(NNC(N)=S)c(C#N)c(-c2ccc3oc(=O)ccc3c2)n1 [MI-743, 2-(5-cyano-6-(2-oxo-2H-chromen-6-yl)-2-(prop-2-yn-1-ylthio)pyrimidin-4-yl)hydrazine-1-carbothioamide]
MTH2
  temperature at which MTH2 became unstable: 49 °C
MUTYH
  temperature at which MUTYH became unstable: 49 °C
Het-1A cells
  IC50: 19.2 ± 1.89 µM
GES-1 cells
  IC50: 25.5 ± 1.02 µM
ZIP177 cells
  IC50: 9.36 ± 0.92 µM
HepG2 cells
  IC50: 6.73 ± 0.83 µM
TE-1 cells
  IC50: 12.8 ± 1.07 µM
MKN45 cells
  IC50: 16 ± 1.18 µM
MGC-803 cells [1]
  colony formation: smaller and fewer colonies
MGC-803 cells [2]
  levels of 8-oxo-dG: sharply increased
HGC-27 cells [3]
  comet tail moment: significantly elevated
HGC-27 cells [4]
  expression levels of p53pS15, ATMpS1981 and p21: significantly increased
